Assay results taken from PMC5172606 (Archives of biochemistry and biophysics, 2016).

Biological target: T1, human soluble epoxide hydrolase (sEH) (Homo sapiens, UniProt P34913)
T1 sequence (P34913 1-555): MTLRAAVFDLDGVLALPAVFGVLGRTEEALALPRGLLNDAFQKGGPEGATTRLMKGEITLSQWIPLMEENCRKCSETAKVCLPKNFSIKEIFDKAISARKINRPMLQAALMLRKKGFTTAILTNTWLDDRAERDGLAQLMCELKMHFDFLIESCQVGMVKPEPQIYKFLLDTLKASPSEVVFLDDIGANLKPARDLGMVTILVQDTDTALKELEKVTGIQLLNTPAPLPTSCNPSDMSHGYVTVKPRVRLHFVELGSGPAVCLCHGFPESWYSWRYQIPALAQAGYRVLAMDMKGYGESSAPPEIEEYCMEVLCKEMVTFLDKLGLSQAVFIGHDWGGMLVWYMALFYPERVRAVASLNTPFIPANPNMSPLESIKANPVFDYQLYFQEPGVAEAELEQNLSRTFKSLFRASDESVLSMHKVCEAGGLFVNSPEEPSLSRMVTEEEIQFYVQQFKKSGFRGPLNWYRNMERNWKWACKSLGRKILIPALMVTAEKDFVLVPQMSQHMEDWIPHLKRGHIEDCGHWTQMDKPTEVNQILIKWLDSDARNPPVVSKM
Assay: radiometric assay with [3H]-tDPPO substrate
Assay type: biochemical

UC2389
IC50: 20 ± 0.5 nM
